Assay results: patent US5593984A, “Cephalosporin derivatives” (Yuhan Corporation, priority 1992, dated 1997)
In brackets after ≈: the same amount, converted by molar mass.

Key:
Format in all cases: cell-based
[1] = test system: M. morganii DY-1; assay: MIC by agar dilution, M. morganii DY-1; conditions: Morganella morganii, DY1, 17 h; M. morganii DY-1; agar dilution, Mueller-Hinton agar; read-out: Minimal Inhibitory Concentration (MIC)
Method in brief: (§1)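 Minimum inhibitory concentrations come from Mueller-Hinton agar plates with two-fold compound steps, inoculated at 10^6 CFU per ml and incubated 17±1 hours at 35°-37° C.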

[2] = test system: Staph. aureus C-57; assay: MIC by agar dilution, Staph. aureus C-57; conditions: Staphylococcus aureus, C57, 17 h, Mueller-Hinton agar, read-out: Minimal Inhibitory Concentration (MIC)
Method in brief: as §1

[3] = test system: Prov. stuartii IFO 12930; assay: MIC by agar dilution, Prov. stuartii IFO 12930; conditions: Providencia stuartii, IFO12930, 17 h, Mueller-Hinton agar, read-out: Minimal Inhibitory Concentration (MIC)
Method in brief: as §1

[4] = test system: Ent. cloacae IFO 13535; assay: MIC by agar dilution, Ent. cloacae IFO 13535; conditions: Enterobacter cloacae, IFO13535, 17 h; Ent. cloacae IFO 13535; agar dilution, Mueller-Hinton agar; read-out: Minimal Inhibitory Concentration (MIC)
Method in brief: as §1

[5] = test system: P. vulgaris NCTC 8313; assay: MIC by agar dilution, P. vulgaris NCTC 8313; conditions: Proteus vulgaris, NCTC8313, 17 h; P. vulgaris NCTC 8313; agar dilution, Mueller-Hinton agar; read-out: Minimal Inhibitory Concentration (MIC)
Method in brief: as §1

[6] = test system: E. coli No. 29; assay: MIC by agar dilution, E. coli No. 29; conditions: Escherichia coli, 17 h; E. coli No. 29; agar dilution, Mueller-Hinton agar; read-out: Minimal Inhibitory Concentration (MIC)
Method in brief: as §1

[7] = test system: Staph. aureus C-5113; assay: MIC by agar dilution, Staph. aureus C-5113; conditions: Staphylococcus aureus, C5113, 17 h, Mueller-Hinton agar, read-out: Minimal Inhibitory Concentration (MIC)
Method in brief: as §1

[8] = test system: Ser. marcescens IFO 12648; assay: MIC by agar dilution, Ser. marcescens IFO 12648; conditions: Serratia marcescens, IFO12648, 17 h; Ser. marcescens IFO 12648; agar dilution, Mueller-Hinton agar; read-out: Minimal Inhibitory Concentration (MIC)
Method in brief: as §1

[9] = test system: K. pneumoniae NCTC 9632; assay: MIC by agar dilution, K. pneumoniae NCTC 9632; conditions: Klebsiella pneumoniae, NCTC9632, 17 h; K. pneumoniae NCTC 9632; agar dilution, Mueller-Hinton agar; read-out: Minimal Inhibitory Concentration (MIC)
Method in brief: as §1

[10] = test system: B. subtilis ATCC 6633; assay: MIC by agar dilution, B. subtilis ATCC 6633; conditions: Bacillus subtilis, ATCC6633, 17 h; B. subtilis ATCC 6633; agar dilution, Mueller-Hinton agar; read-out: Minimal Inhibitory Concentration (MIC)
Method in brief: as §1

[11] = test system: Staph. aureus ATCC 6538P; assay: MIC by agar dilution, Staph. aureus ATCC 6538P; conditions: Staphylococcus aureus, ATCC6538P, 17 h; Staph. aureus ATCC 6538P; agar dilution, Mueller-Hinton agar; read-out: Minimal Inhibitory Concentration (MIC)
Method in brief: as §1

[12] = test system: Ent. aerogenes IFO 12979; assay: MIC by agar dilution, Ent. aerogenes IFO 12979; conditions: Klebsiella aerogenes, IFO12979, 17 h, Mueller-Hinton agar, read-out: Minimal Inhibitory Concentration (MIC)
Method in brief: as §1

[13] = test system: Staph. aureus C-5216; assay: MIC by agar dilution, Staph. aureus C-5216; conditions: Staphylococcus aureus, C5216, 17 h, Mueller-Hinton agar, read-out: Minimal Inhibitory Concentration (MIC)
Method in brief: as §1

[14] = test system: E. coli NIHJ JC-2; assay: MIC by agar dilution, E. coli NIHJ JC-2; conditions: Escherichia coli, NIHJJC2, 17 h; E. coli NIHJ JC-2; agar dilution, Mueller-Hinton agar; read-out: Minimal Inhibitory Concentration (MIC)
Method in brief: as §1

[15] = test system: Ps. aeruginosa NCTC 10490; assay: MIC by agar dilution, Ps. aeruginosa NCTC 10490; conditions: Pseudomonas aeruginosa, NCTC10490, 17 h, Mueller-Hinton agar, read-out: Minimal Inhibitory Concentration (MIC)
Method in brief: as §1

[16] = test system: Ps. aeruginosa ATCC 10145; assay: MIC by agar dilution, Ps. aeruginosa ATCC 10145; conditions: Pseudomonas aeruginosa, ATCC10145, 17 h, Mueller-Hinton agar, read-out: Minimal Inhibitory Concentration (MIC)
Method in brief: as §1

[17] = test system: S. epidermidis ATCC 12228; assay: MIC by agar dilution, S. epidermidis ATCC 12228; conditions: Staphylococcus epidermidis, ATCC12228, 17 h; S. epidermidis ATCC 12228; agar dilution, Mueller-Hinton agar; read-out: Minimal Inhibitory Concentration (MIC)
Method in brief: as §1

[18] = test system: E. coli DY-1; assay: MIC by agar dilution, E. coli DY-1; conditions: Escherichia coli, DY1, 17 h; E. coli DY-1; agar dilution, Mueller-Hinton agar; read-out: Minimal Inhibitory Concentration (MIC)
Method in brief: as §1

[19] = test system: Ps. aeruginosa DY-2; assay: MIC by agar dilution, Ps. aeruginosa DY-2; conditions: Pseudomonas aeruginosa, DY2, 17 h; Ps. aeruginosa DY-2; agar dilution, Mueller-Hinton agar; read-out: Minimal Inhibitory Concentration (MIC)
Method in brief: as §1

[20] = test system: Staph. aureus Smith; assay: MIC by agar dilution, Staph. aureus Smith; conditions: Staphylococcus aureus, 17 h, Mueller-Hinton agar, read-out: Minimal Inhibitory Concentration (MIC)
Method in brief: as §1

Row | Compound | MIC [1] [µg/mL] | MIC [2] [µg/mL] | MIC [3] [µg/mL] | MIC [4] [µg/mL] | MIC [5] [µg/mL] | MIC [6] [µg/mL] | MIC [7] [µg/mL] | MIC [8] [µg/mL] | MIC [9] [µg/mL] | MIC [10] [µg/mL] | MIC [11] [µg/mL] | MIC [12] [µg/mL] | MIC [13] [µg/mL] | MIC [14] [µg/mL] | MIC [15] [µg/mL] | MIC [16] [µg/mL] | MIC [17] [µg/mL] | MIC [18] [µg/mL] | MIC [19] [µg/mL] | MIC [20] [µg/mL]
1 | CON=C(C(=O)NC1C(=O)N2C(C(=O)[O-])=C(C[n+]3ccn4c(SCCN)ccc4c3)CSC12)c1csc(N)n1 (stereo not drawn) [Ex. 27, 7-β-[(Z)-2-(2-aminothiazol-4-yl)2-methoxyiminoacetamido]-3-[6-(2-aminoethylthio)pyrrolo[1,2-a]pyrazinium-2-yl]methyl-3-cephem-4-carboxylate] | 0.012 (≈ 0.0204 µM) | 100 (≈ 170 µM) | ≤ 0.006 | 0.1 (≈ 0.17 µM) | ≤ 0.006 | ≤ 0.006 | 0.78 (≈ 1.32 µM) | 0.012 (≈ 0.0204 µM) | 0.012 (≈ 0.0204 µM) | 0.1 (≈ 0.17 µM) | 0.2 (≈ 0.34 µM) | ≤ 0.006 | 0.78 (≈ 1.32 µM) | ≤ 0.006 | 0.2 (≈ 0.34 µM) | 0.78 (≈ 1.32 µM) | 0.05 (≈ 0.0849 µM) | ≤ 0.006 | 1.56 (≈ 2.65 µM) | 0.78 (≈ 1.32 µM)
2 | CCON=C(C(=O)NC1C(=O)N2C(C(=O)[O-])=C(C[n+]3ccn4c(SCCN)ccc4c3)CSC12)c1csc(N)n1 (stereo not drawn) [Ex. 28, 7-β-[(Z)-2-(2-aminothiazol-4-yl)2-ethoxyiminoacetamido]-3-[6-(2-aminoethylthio)pyrrolo[1,2-a]pyrazinium-2-yl]methyl-3-cephem-4-carboxylate] | 0.05 (≈ 0.083 µM) | 50 (≈ 83 µM) | 0.012 (≈ 0.0199 µM) | 0.2 (≈ 0.332 µM) | 0.012 (≈ 0.0199 µM) | 0.012 (≈ 0.0199 µM) | 0.78 (≈ 1.29 µM) | 0.05 (≈ 0.083 µM) | 0.05 (≈ 0.083 µM) | 0.1 (≈ 0.166 µM) | 0.2 (≈ 0.332 µM) | 0.012 (≈ 0.0199 µM) | 0.78 (≈ 1.29 µM) | 0.025 (≈ 0.0415 µM) | 0.39 (≈ 0.647 µM) | 1.56 (≈ 2.59 µM) | 0.05 (≈ 0.083 µM) | 0.012 (≈ 0.0199 µM) | 3.13 (≈ 5.19 µM) | 0.78 (≈ 1.29 µM)
3 | NCCSc1ccc2c[n+](CC3=C(C(=O)[O-])N4C(=O)C(NC(=O)C(=NOCF)c5csc(N)n5)C4SC3)ccn12 (stereo not drawn) [Ex. 29, 7-β-[(Z)-2-(2-aminothiazol-4-yl)2-fluoromethoxyiminoacetamido]-3-[6-(2-aminoethylthio)pyrrolo[1,2-a]pyrazinium-2-yl]methyl-3-cephem-4-carboxylat] | ≤ 0.006 | 25 (≈ 41.2 µM) | ≤ 0.006 | 0.012 (≈ 0.0198 µM) | ≤ 0.006 | ≤ 0.006 | 0.78 (≈ 1.29 µM) | ≤ 0.006 | ≤ 0.006 | 0.05 (≈ 0.0824 µM) | 0.2 (≈ 0.33 µM) | ≤ 0.006 | 0.78 (≈ 1.29 µM) | ≤ 0.006 | 0.2 (≈ 0.33 µM) | 0.78 (≈ 1.29 µM) | 0.05 (≈ 0.0824 µM) | ≤ 0.006 | 6.25 (≈ 10.3 µM) | 0.78 (≈ 1.29 µM)
4 | CON=C(C(=O)NC1C(=O)N2C(C(=O)[O-])=C(C[n+]3ccn4ccc(CO)c4c3)CSC12)c1csc(N)n1 (stereo not drawn) [Ex. 30, 7-β-[(Z)-2-(2-aminothiazol-4-yl)2-methoxyiminoacetamido]-3-(8-hydroxymethylpyrrolo[1,2-a]pyrazinium-2-yl)methyl-3-cephem-4-carboxylate] | 0.012 (≈ 0.0221 µM) | 50 (≈ 92 µM) | ≤ 0.006 | 0.05 (≈ 0.092 µM) | 0.012 (≈ 0.0221 µM) | ≤ 0.006 | 3.13 (≈ 5.76 µM) | 0.012 (≈ 0.0221 µM) | 0.012 (≈ 0.0221 µM) | 0.1 (≈ 0.184 µM) | 0.2 (≈ 0.368 µM) | ≤ 0.006 | 0.78 (≈ 1.43 µM) | ≤ 0.006 | 0.1 (≈ 0.184 µM) | 0.39 (≈ 0.717 µM) | 0.05 (≈ 0.092 µM) | ≤ 0.006 | 3.13 (≈ 5.76 µM) | 0.78 (≈ 1.43 µM)
